Results taken from patent publication US20110039762A1, “TARGETED ANTIMICROBIAL MOIETIES” (C3 JIAN, INC., priority 2009, published 2011).
“Also recorded” adds a separate entry of the source. Ends that are not written are not given here.

Assays:
S. pneumoniae = assay: Kill or inhibit growth/proliferation; morphology, biofilm and growth disruption (Tables 5, 6); format: cell-based, Streptococcus pneumoniae; design: key: A: Peptide aggregates; B: Less hyphal formation; Clumps; Diffuse clumps and small polyps; F: Diffuse growth; H: Thin; I: Growth inhibition; Microcolony formation; Rippled; Small polyps; Thick; W: Halo formation on top, microlonies on bottom; note: test concentration or dose not given here
microorganisms = assay: Peptides having multiple activities (targeting/binding, antimicrobial, growth or phenotype altering); design: key: B: targeting/binding activity;; M: antimicrobial activity;; G: Growth or phenotype altering
Description: In certain embodiments, peptides described herein can have multiple activities. Thus for example, a peptide can have both binding/targeting activity and antimicrobial activity. Such peptides can be used, e.g., in a chimeric construct, for any or all of these properties. Thus, for example, a peptide designated “B” in Table 8 can be used as a targeting peptide. If it is also designated G or M it can also be used for antimicrobial activity.

[1] = system: microorganisms (e.g., bacteria, yeasts, fungi); assay: Targeting peptide binding to target microorganisms (Table 3); conditions: preferably 1x PBS; for Target(s): microorganism(s) the targeting peptide binds; for Target(s) (microorganisms bound by the targeting peptide): peptide binding in aqueous buffers varied by peptide solubility
[2] = peptide binding conducted in aqueous buffers varied by peptide solubility

Row | Substance | Organism, effect (S. pneumoniae) | Activities (microorganisms) | Target(s) [1, 2] | Organism, effect (morphology, biofilm and growth disruption) (S. pneumoniae) | Target(s) (microorganisms bound by the targeting peptide) [1] | Target(s) ([1]; binding in aqueous buffers depending on peptide solubility)
1 | HKNKLNIPHIKS [PF-477] | S. pneumoniae (H) | G B | S. epidermidis; also recorded: M. luteus; also recorded: C. albicans; also recorded: S. pneumoniae; also recorded: C. jeikeium; also recorded: C. jejuni |  |  | 
2 | LHVIRPRPELSELKFPITKILKVNKQGLKK [PF-752] |  | G B |  | S. pneumoniae (C) | S. epidermidis and E. coli and MRSA and S. pneumoniae and E. faecalis | 
3 | PF-144: peptide having multiple activities (RSGQPVGRPSRRAWLR; Peptide with targeting and/or antimicrobial activity) | S. pneumoniae (H) | G B |  |  |  | S. epidermidis and M. luteus and E. coli and C. albicans and MRSA and S. pneumoniae and E. faecalis and C. jeikeium
4 | PF-414: peptide having multiple activities (LLNKKLE; Peptide with targeting and/or antimicrobial activity) | S. pneumoniae (H) | G B | E. coli; also recorded: C. albicans; also recorded: C. jeikeium |  |  | 
5 | PF-416: peptide having multiple activities (SKAGLYGKIERSDKRE; Peptide with targeting and/or antimicrobial activity) | S. pneumoniae (H) | G B | S. pneumoniae; also recorded: C. jeikeium |  |  | 
6 | PF-421: peptide having multiple activities (KHCFEITDKTDVV; Peptide with targeting and/or antimicrobial activity) | S. pneumoniae (H) | G B | C. jeikeium |  |  | 
7 | PF-423: peptide having multiple activities (AGKKERLLSFREQFLNKNKKK; Peptide with targeting and/or antimicrobial activity) | S. pneumoniae (H) | G B | S. epidermidis; also recorded: M. luteus; also recorded: E. coli; also recorded: S. pneumoniae; also recorded: E. faecalis; also recorded: C. jeikeium |  |  | 
8 | PF-424: peptide having multiple activities (IAAFVTSRAFSDTVSPI; Peptide with targeting and/or antimicrobial activity) | S. pneumoniae (H) | G B | S. epidermidis and C. albicans and MRSA |  |  | 
9 | PF-428: peptide having multiple activities (ENEESIF; Peptide with targeting and/or antimicrobial activity) | S. pneumoniae (H) | G B | S. epidermidis; also recorded: C. albicans; also recorded: E. faecalis; also recorded: C. jeikeium |  |  | 
10 | PF-433: peptide having multiple activities (MRKEFHNVLSSGQLLADKRPARDYNRK; Peptide with targeting and/or antimicrobial activity) | S. pneumoniae (H) | G B | S. epidermidis; also recorded: E. coli; also recorded: S. pneumoniae; also recorded: C. jeikeium |  |  | 
11 | PF-434: peptide having multiple activities (GQLLADKRPARDYNRK; Peptide with targeting and/or antimicrobial activity) | S. pneumoniae (S) | G B | S. epidermidis; also recorded: M. luteus; also recorded: S. pneumoniae; also recorded: C. jeikeium |  |  | 
12 | PF-445: peptide having multiple activities (chain 1 ASMTKRLKLAMSKV; chain 2 ASMTKRLKLAMSKV; Peptide with targeting and/or antimicrobial activity) | S. pneumoniae (M) | G B | M. luteus; also recorded: S. pneumoniae; also recorded: C. jeikeium |  |  | 
13 | PF-446: peptide having multiple activities (chain 1 SGNEKV; chain 2 SGNEKV; Peptide with targeting and/or antimicrobial activity) | S. pneumoniae (H) | G B | M. luteus; also recorded: C. jeikeium |  |  | 
14 | PF-457: peptide having multiple activities (chain 1 INKYHHIA; chain 2 INKYHHIA; Peptide with targeting and/or antimicrobial activity) | S. pneumoniae (M) | G B | C. albicans; also recorded: S. pneumoniae; also recorded: E. faecalis; also recorded: C. jeikeium |  |  | 
15 | PF-459: peptide having multiple activities (chain 1 EKRMSFNENQSHRPLL; chain 2 EKRMSFNENQSHRPLL; Peptide with targeting and/or antimicrobial activity) | S. pneumoniae (H) | G B | P. aeruginosa |  |  | 
16 | PF-462: peptide having multiple activities (chain 1 KNKTDTL; chain 2 KNKTDTL; Peptide with targeting and/or antimicrobial activity) | S. pneumoniae (H) | G B | E. faecalis; also recorded: C. jeikeium |  |  | 
17 | PF-464: peptide having multiple activities (chain 1 VDMVNRFLGN; chain 2 VDMVNRFLGN; Peptide with targeting and/or antimicrobial activity) | S. pneumoniae (S) | G B | S. epidermidis and C. albicans and MRSA and S. pneumoniae and E. faecalis and C. jeikeium and C. jejuni |  |  | 
18 | PF-465: peptide having multiple activities (chain 1 KPVGKALEEIADGKIEPVVPKEYLG; chain 2 KPVGKALEEIADGKIEPVVPKEYLG; Peptide with targeting and/or antimicrobial activity) | S. pneumoniae (H) | G B |  |  |  | 
19 | PF-466: peptide having multiple activities (chain 1 VRKSDQ; chain 2 VRKSDQ; Peptide with targeting and/or antimicrobial activity) | S. pneumoniae (H) | G B | MRSA and C. jeikeium and C. jejuni |  |  | 
20 | PF-467: peptide having multiple activities (chain 1 YYKDYFKEI; chain 2 YYKDYFKEI; Peptide with targeting and/or antimicrobial activity) | S. pneumoniae (H) | G B | MRSA and E. faecalis and C. jeikeium and C. jejuni |  |  | 
21 | PF-476: peptide having multiple activities (chain 1 WADAQYKLCENCSE; chain 2 WADAQYKLCENCSE; Peptide with targeting and/or antimicrobial activity) | S. pneumoniae (H) | G B | M. luteus; also recorded: P. mirabilis; also recorded: C. albicans; also recorded: S. pneumoniae; also recorded: E. faecalis; also recorded: C. jeikeium; also recorded: C. jejuni |  |  | 
22 | PF-479: peptide having multiple activities (chain 1 AYILKRREEKNK; chain 2 AYILKRREEKNK; Peptide with targeting and/or antimicrobial activity) | S. pneumoniae (C) | G B |  |  |  | 
23 | PF-482: peptide having multiple activities (chain 1 LVGYVRTSGTVRSYKIN; chain 2 LVGYVRTSGTVRSYKIN; Peptide with targeting and/or antimicrobial activity) | S. pneumoniae (S) | G B |  |  |  | 
24 | PF-513: peptide having multiple activities (chain 1 SNGVGLGVGIGSGIRF-NH2; chain 2 SNGVGLGVGIGSGIRF-NH2) | S. pneumoniae (M) | G B | C. albicans |  |  | 
25 | PF-515: peptide having multiple activities (chain 1 DKSTQDKDIKQAKLLAQELGL-NH2; chain 2 DKSTQDKDIKQAKLLAQELGL-NH2) | S. pneumoniae (H) | G B | S. epidermidis; also recorded: C. albicans; also recorded: S. pneumoniae; also recorded: C. jeikeium |  |  | 
26 | PF-516: peptide having multiple activities (ASKQASKQASKQASKQ; Peptide with targeting and/or antimicrobial activity) | S. pneumoniae (H) | G |  |  |  | 
27 | PF-537: peptide having multiple activities (chain 1 LANDYYKKTKKSW; chain 2 LANDYYKKTKKSW; Peptide with targeting and/or antimicrobial activity) | S. pneumoniae (C) | G B |  |  |  | 
28 | PF-702 (chain 1 LSGRLAGRR; chain 2 LSGRLAGRR; Peptide with targeting and/or antimicrobial activity) |  |  |  | S. pneumoniae (H) | Mycobacteria spp | 
29 | PF-704 (chain 1 APAARAAL; chain 2 APAARAAL; Peptide with targeting and/or antimicrobial activity) |  |  |  | S. pneumoniae (C) | Mycobacteria spp | 
